Test results published in ChEMBL document CHEMBL1201862, “PubChem BioAssay data set” (2004).
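48-hour exposure; five concentrations; linearly interpolated endpoints. GI50 marks 50% less growth.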 Active and inactive are the calls of the source. Cut-off read from the data, not from the text of the source: active = GI50 up to about 1.1 µM and inactive = higher.

Experiments:
Assay in all cases: NCI tumour cell line growth inhibition, 48 h
[1] = test system: 786-0
[2] = test system: NCI-H23
[3] = test system: M19-MEL
[4] = test system: CAKI-1
[5] = test system: HOP-62
[6] = test system: SF-268
[7] = test system: A549
[8] = test system: RXF 393
[9] = test system: HOP-18
[10] = test system: SNB-78
[11] = test system: SF-295
[12] = test system: SN12C
[13] = test system: K562
[14] = test system: OVCAR-4
[15] = test system: IGROV-1
[16] = test system: MOLT-4
[17] = test system: HCT-116
[18] = test system: NCI-H522
[19] = test system: SF-539
[20] = test system: SK-MEL-2
[21] = test system: SK-MEL-28
[22] = test system: RPMI-8226
[23] = test system: SR
[24] = test system: OVCAR-3
[25] = test system: SK-OV-3
[26] = test system: UO-31
[27] = test system: UACC-257
[28] = test system: EKVX
[29] = test system: KM12
[30] = test system: KM-20L2
[31] = test system: HCC 2998
[32] = test system: Malme-3M
[33] = test system: DLD-1
[34] = test system: HL-60
[35] = test system: M14
[36] = test system: OVCAR-5
[37] = test system: CCRF-CEM
[38] = test system: ACHN
[39] = test system: UACC-62
[40] = test system: HT-29
[41] = test system: SNB-75
[42] = test system: HCT-15
[43] = test system: HOP-92
[44] = test system: NCI-H460
[45] = test system: SW-620
[46] = test system: COLO 205
[47] = test system: NCI-H226
[48] = test system: DMS-114
[49] = test system: A498
[50] = test system: LOX IMVI
[51] = test system: SNB-19
[52] = test system: LXFL 529
[53] = test system: TK-10
[54] = test system: DMS-273
[55] = test system: OVCAR-8
[56] = test system: U-251
[57] = test system: SK-MEL-5
[58] = test system: XF498

Cc1c2ccccc2c(C)c2c3c(ccc12)C(=O)C=CC3=O
GI50 [1]: 25.7 µM (inactive) | GI50 [2]: 32.3 µM (inactive) | GI50 [3]: 17.1 µM (inactive) | GI50 [4]: 22.1 µM (inactive) | GI50 [5]: > 44.5 µM (inactive) | GI50 [6]: 18.4 µM (inactive) | GI50 [7]: > 83.9 µM (inactive) | GI50 [8]: 13 µM (inactive) | GI50 [9]: 23.8 µM (inactive) | GI50 [10]: 16.3 µM (inactive) | GI50 [11]: 24.7 µM (inactive) | GI50 [12]: 27.8 µM (inactive) | GI50 [13]: 11.3 µM (inactive) | GI50 [14]: 23.4 µM (inactive) | GI50 [15]: 20 µM (inactive) | GI50 [16]: 2.26 µM (inactive) | GI50 [17]: 22.5 µM (inactive) | GI50 [18]: 13.6 µM (inactive) | GI50 [19]: 35.6 µM (inactive) | GI50 [20]: 45.7 µM (inactive) | GI50 [21]: 30.7 µM (inactive) | GI50 [22]: 29.9 µM (inactive) | GI50 [23]: 8.36 µM (inactive) | GI50 [24]: 17.8 µM (inactive) | GI50 [25]: > 60.5 µM (inactive) | GI50 [26]: 18.2 µM (inactive) | GI50 [27]: 16.3 µM (inactive) | GI50 [28]: 30.2 µM (inactive) | GI50 [29]: 27.3 µM (inactive) | GI50 [30]: 41.9 µM (inactive) | GI50 [31]: 35.3 µM (inactive) | GI50 [32]: 29 µM (inactive) | GI50 [33]: 18.5 µM (inactive) | GI50 [34]: 2.15 µM (inactive) | GI50 [35]: 30 µM (inactive) | GI50 [36]: > 100 µM (inactive) | GI50 [37]: 2.49 µM (inactive) | GI50 [38]: 17.8 µM (inactive) | GI50 [39]: 35.8 µM (inactive) | GI50 [40]: 28 µM (inactive) | GI50 [41]: > 63.5 µM (inactive) | GI50 [42]: 19.1 µM | GI50 [43]: 15.1 µM (inactive) | GI50 [44]: > 67.6 µM (inactive) | GI50 [45]: 21.6 µM (inactive) | GI50 [46]: 15.7 µM (inactive) | GI50 [47]: > 89.5 µM (inactive) | GI50 [48]: 11.8 µM (inactive) | GI50 [49]: > 100 µM (inactive) | GI50 [50]: 25.8 µM (inactive) | GI50 [51]: > 100 µM (inactive) | GI50 [52]: 17.3 µM (inactive) | GI50 [53]: 19.2 µM (inactive) | GI50 [54]: 64.7 µM (inactive) | GI50 [55]: 14.9 µM (inactive) | GI50 [56]: 52.1 µM (inactive) | GI50 [57]: 37.7 µM (inactive) | GI50 [58]: 17 µM (inactive)

CC(=O)N(C)c1ccc2ncccc2c1[N+](=O)[O-]
GI50 [1]: > 100 µM (inactive) | GI50 [2]: > 100 µM (inactive) | GI50 [3]: > 100 µM (inactive) | GI50 [4]: > 100 µM (inactive) | GI50 [5]: > 100 µM (inactive) | GI50 [6]: > 100 µM (inactive) | GI50 [7]: > 100 µM (inactive) | GI50 [8]: > 100 µM (inactive) | GI50 [9]: > 100 µM (inactive) | GI50 [10]: > 100 µM (inactive) | GI50 [11]: > 100 µM (inactive) | GI50 [12]: > 100 µM (inactive) | GI50 [13]: > 100 µM (inactive) | GI50 [14]: > 100 µM (inactive) | GI50 [15]: > 100 µM (inactive) | GI50 [16]: > 100 µM (inactive) | GI50 [17]: > 100 µM (inactive) | GI50 [19]: > 100 µM (inactive) | GI50 [20]: > 100 µM (inactive) | GI50 [21]: > 100 µM (inactive) | GI50 [22]: > 100 µM (inactive) | GI50 [23]: > 100 µM (inactive) | GI50 [24]: > 100 µM (inactive) | GI50 [26]: > 100 µM (inactive) | GI50 [27]: > 100 µM (inactive) | GI50 [28]: > 100 µM (inactive) | GI50 [29]: > 100 µM (inactive) | GI50 [30]: > 100 µM (inactive) | GI50 [31]: > 100 µM (inactive) | GI50 [32]: > 100 µM (inactive) | GI50 [33]: > 100 µM (inactive) | GI50 [34]: > 100 µM (inactive) | GI50 [35]: > 100 µM (inactive) | GI50 [36]: > 100 µM (inactive) | GI50 [37]: > 100 µM (inactive) | GI50 [38]: > 100 µM (inactive) | GI50 [39]: > 100 µM (inactive) | GI50 [40]: > 100 µM (inactive) | GI50 [41]: > 100 µM (inactive) | GI50 [42]: > 100 µM | GI50 [43]: > 100 µM (inactive) | GI50 [44]: > 100 µM (inactive) | GI50 [45]: > 100 µM (inactive) | GI50 [47]: > 100 µM (inactive) | GI50 [48]: > 100 µM (inactive) | GI50 [49]: > 100 µM (inactive) | GI50 [50]: > 100 µM (inactive) | GI50 [51]: > 100 µM (inactive) | GI50 [52]: > 100 µM (inactive) | GI50 [53]: > 100 µM (inactive) | GI50 [54]: > 100 µM (inactive) | GI50 [55]: > 100 µM (inactive) | GI50 [57]: > 100 µM (inactive) | GI50 [58]: > 100 µM (inactive)
